Measurements published in patent publication US9359378B2, “Substituted oxazolo[3,4-a]pyrazines as pharmaceutcals” (BIOLAB SANUS FARMACÊUTICA LTDA., priority 2014, dated 2016).

Tested on: rabbit's corpus cavernosum
Assay: Relaxing effect in isolated rabbit's corpus cavernosum strips pre-contracted with phenylephrine (isometric tension)
Design: species or system New Zealand White rabbits
Details: strips pre-contracted with 1 μM PE; FIGS. 12 and 13
Experimental: For this study, New Zealand White rabbits (2 to 3.5 kg) were used to obtain penile tissue which was excised and transferred to a chilled Krebs solution. For this study, we used cavernosum strips (CC) of the penile tissue of New Zealand White rabbits. The strips were mounted in 10 ml tissue incubation chambers containing Krebs solution at 37° C., pH occurring between 7.3 and 7.5; continuously bubbled with a mixture of 95% oxygen (O2) and 5% carbon dioxide (CO2). An initial tension of 10 mN were applied on the tissues, followed by a 60 minute stabilization period. Changes in tension (isometric force) were obtained using isometric transducers (ADInstruments, Australia) and recorded in a data acquisition system PowerLab 4/30 (Chart Software, version 7.3.7, ADInstruments, MA, USA for BL-230 and version 7.0 ADInstruments, MA for the BL-236). […] Cumulative curve responses to the concentration of BL-230 compounds and tadalafil (0.001 to 10 μM) were obtained in the pre-contracted rabbit corpus cavernosum strips with 1 μM PE.

## CN1CC(=O)N2[C@H](c3ccc4c(c3)OCO4)c3[nH]c4ccccc4c3C[C@@H]2C1=O [tadalafil, reference compound]
  percentage of relaxation in rabbit's corpus cavernosum: around 100%
